From US20100190747A1, “Fused ring compound and use thereof” (priority 2009, published 2010)

biological target: T1, delta-5-desaturase (Rattus norvegicus, UniProt Q920R3); test: Inhibitory activity on delta-5-desaturase (rat liver microsomal fraction, 14C-eicosatrienoic acid, TLC); assay type: biochemical; conditions: test compound at 10 μM, room temperature, 120 minutes
T1 construct: the microsomal fraction of a rat river (10 μl), which had been diluted to 3 mg/ml; from tissue; host or cells: rat liver microsomal fraction
Procedure: An inhibitory activity of a test compound on delta-5-desaturase was measured according to the method described herein below. To a DMSO solution of the test compound which had been previously prepared, secondary dilution was carried out by using a buffer (300 mM NaH2PO4 [pH 7.4], 450 mM KCl, 30 mM NaF, 9 mM MgCl2, 4.5 mM glutathione [reduced form], 0.3% BSA [fatty acid free, SIGMA]). This diluent compound (10 μl) was added in a 96-well deep well block made of polypropylene, and then the microsomal fraction of a rat river (10 μl), which had been diluted to 3 mg/ml by using a microsome buffer (10 mM Tris-HCl [pH 7.4], 1 mM EDTA, and 250 mM sucrose), was added thereto. The enzyme reaction was initiated by adding 10 μl of 9 mM NADH, 9 mM ATP, 0.9 mM CoA and 10 μCi/ml (8E,11E,14E)-(1-^14C)eicosa-8,11,14-trienoic acid (PerkinElmer Inc.). The enzyme reaction was carried out at room temperature for 120 minutes, and then terminated by addition of 2.5 M NaOH (10 μl). Upon the completion of the reaction, the plate was covered with plate seal and incubated overnight in a dry heater of which temperature was set at 55° C. for saponification. Based on Bligh & Dyer method which had been described in a known document, Canadian Journal of Biochemistry and Physiology (Can. J. Biochem. Physiol.), Vol. 37, page 911, 1959), the solvent extraction of fatty acid was carried out by adding 200 μl of formic acid:methanol:chloroform (1:6:3), keeping the mixture as a single layer for a while, stirring the mixture to a sufficient level, and adding 120 μl of pure water to separate the mixture into two layers. 10 μl of the bottom chloroform layer was spotted on a reverse phase TLC plate (RP-18, 1154230001, Merck Japan, Ltd.) and then developed with acetonitrile:pure water:acetic acid (95:4.5:0.5). The TLC plate obtained after drying was transferred to an Imaging Plate (Fuji Photo Film Co., Ltd.) for more than 5 hours. Detection was carried out by using BAS-5000 (Fuji Photo Film Co., Ltd.). Numerization of thus-obtained image was carried out by using Multi Gauge Ver 2.3 (Fuji Photo Film Co., Ltd.) and an inhibitory ratio (%) of the test compound at 10 μM on delta-5-desaturase was obtained.

T1 sequence (Q920R3 whole entry): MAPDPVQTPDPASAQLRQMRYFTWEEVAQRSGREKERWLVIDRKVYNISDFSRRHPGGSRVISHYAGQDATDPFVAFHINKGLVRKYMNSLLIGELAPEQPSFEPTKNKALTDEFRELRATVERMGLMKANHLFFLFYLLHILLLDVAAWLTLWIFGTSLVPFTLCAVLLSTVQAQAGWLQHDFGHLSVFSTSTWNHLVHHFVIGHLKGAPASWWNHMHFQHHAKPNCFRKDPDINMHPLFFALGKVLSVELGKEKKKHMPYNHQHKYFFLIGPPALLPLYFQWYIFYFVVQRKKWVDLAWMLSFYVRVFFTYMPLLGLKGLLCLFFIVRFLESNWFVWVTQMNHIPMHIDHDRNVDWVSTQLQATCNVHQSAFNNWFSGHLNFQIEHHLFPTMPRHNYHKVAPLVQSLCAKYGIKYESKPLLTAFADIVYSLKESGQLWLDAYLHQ

Q: For `O=C(CCCSc1nc2cc[nH]c2c(=O)n1-c1ccc(OCC(F)(F)F)cc1)N1CCOCC1` [Example 109, 2-[(4-Morpholin-4-yl-4-oxobutyl)sulfanyl]-3-[4-(2,2,2-trifluoroethoxy)phenyl]-3,5-dihydro-4H-pyrrolo[3,2-d]pyrimidin-4-one], which inhibition at 10 µM is on record?
A: 101%

Q: With `O=C1Cc2c(nc(SCC(F)(F)F)n(-c3ccc(OCC(F)(F)F)cc3)c2=O)N1` [Example 298, 3-[4-(2,2,2-Trifluoroethoxy)phenyl]-2-[(2,2,2-trifluoroethyl)sulfanyl]-5,7-dihydro-3H-pyrrolo[2,3-d]pyrimidine-4,6-dione] as the compound, how does the inhibition at 10 µM read?
A: 101%

Q: For `CCOCCCSc1nc2cc[nH]c2c(=O)n1-c1ccc(OCC2CC2)cc1` [Example 139, 3-[4-(Cyclopropylmethoxy)phenyl]-2-[(3-ethoxypropyl)sulfanyl]-3,5-dihydro-4H-pyrrolo[3,2-d]pyrimidin-4-one], which inhibition at 10 µM is on record?
A: 101%

Q: Which inhibition at 10 µM does the source give for `CC(C)Oc1nc2[nH]ccc2c(=O)n1-c1ccc(OCC(F)(F)F)c(F)c1` [Example 316, 3-[3-Fluoro-4-(2,2,2-trifluoroethoxy)phenyl]-2-(1-methylethoxy)-3,7-dihydro-4H-pyrrolo[2,3-d]pyrimidin-4-one] here?
A: 103%

Q: How did the inhibition at 10 µM turn out when `COCCCSc1nc2cc[nH]c2c(=O)n1-c1ccc(OCC(F)(F)F)cc1` [Example 132, 2-[(3-Methoxypropyl)sulfanyl]-3-[4-(2,2,2-trifluoroethoxy)phenyl]-3,5-dihydro-4H-pyrrolo[3,2-d]pyrimidin-4-one] was run?
A: 107%

Q: `CC(C)(O)CCCSc1nc2cc[nH]c2c(=O)n1-c1ccc(OCC(F)(F)F)cc1` [Example 123, 2-[(4-Hydroxy-4-methylpentyl)sulfanyl]-3-[4-(2,2,2-trifluoroethoxy)phenyl]-3,5-dihydro-4H-pyrrolo[3,2-d]pyrimidin-4-one] was tested. Which inhibition at 10 µM did it give?
A: 101%

Q: Which inhibition at 10 µM does the source give for `COCCSc1nc2c(c(=O)n1-c1ccc(OCC(F)(F)F)cc1)CC(=O)N2` [Example 325, 2-[(2-Methoxyethyl)sulfanyl]-3-[4-(2,2,2-trifluoroethoxy)phenyl]-5,7-dihydro-3H-pyrrolo[2,3-d]pyrimidine-4,6-dione] here?
A: 105%

Q: How did the inhibition at 10 µM turn out when `O=c1c2cc[nH]c2nc(SC2CC2)n1-c1ccc(OCC(F)(F)F)cc1` [Example 256, 2-(Cyclopropylsulfanyl)-3-[4-(2,2,2-trifluoroethoxy)phenyl]-3,7-dihydro-4H-pyrrolo[2,3-d]pyrimidin-4-one] was run?
A: 104%

Q: `CCSc1nc2cc[nH]c2c(=O)n1-c1ccc(OCC2CC2)cc1` [Example 153, 3-[4-(Cyclopropylmethoxy)phenyl]-2-(ethylsulfanyl)-3,5-dihydro-4H-pyrrolo[3,2-d]pyrimidin-4-one] was tested. Which inhibition at 10 µM did it give?
A: 98%

Q: With `CCOCCCSc1nc2cc[nH]c2c(=O)n1-c1ccc(OCC(F)(F)F)cc1` [Example 81, 2-[(3-Ethoxypropyl)sulfanyl]-3-[4-(2,2,2-trifluoroethoxy)phenyl]-3,5-dihydro-4H-pyrrolo[3,2-d]pyrimidin-4-one] as the compound, how does the inhibition at 10 µM read?
A: 97%

Q: How did the inhibition at 10 µM turn out when `COCCOCCCSc1nc2[nH]ccc2c(=O)n1-c1ccc(OCC(F)(F)F)cc1` [Example 191, 2-{[3-(2-Methoxyethoxy)propyl]sulfanyl}-3-[4-(2,2,2-trifluoroethoxy)phenyl]-3,7-dihydro-4H-pyrrolo[2,3-d]pyrimidin-4-one] was run?
A: 101%

Q: For `O=c1c2[nH]ccc2nc(SCCCS(=O)(=O)NCC(F)(F)F)n1-c1ccc(OCC(F)(F)F)cc1` [Example 107, 3-({4-Oxo-3-[4-(2,2,2-trifluoroethoxy)phenyl]-4,5-dihydro-3H-pyrrolo[3,2-d]pyrimidin-2-yl}sulfanyl)-N-(2,2,2-trifluoroethyl)propane-1-sulfonamide], which inhibition at 10 µM is on record?
A: 100%

same assay, conditions: test compound at 10 μM, room temperature, 120 minutes, 10 µM

Q: How did the “Inhibitory activity at 10 μM (%)” value turn out when `O=c1c2cc[nH]c2nc(OC2CCC2)n1-c1ccc(OCC(F)(F)F)cc1` [Example 283, 2-(Cyclobutyloxy)-3-[4-(2,2,2-trifluoroethoxy)phenyl]-3,7-dihydro-4H-pyrrolo[2,3-d]pyrimidin-4-one] was run?
A: 101%
